Data published in publication PMC7932537, “Quantitative profiling of protease specificity” (PLoS Computational Biology, 2021).

Assays:
[1] = target: T1, MMP-2 (Homo sapiens, UniProt P08253); assay: K(obs) of individual phage substrates (set of 1369); format: biochemical; settings: MMP2
T1 sequence (P08253 110-660): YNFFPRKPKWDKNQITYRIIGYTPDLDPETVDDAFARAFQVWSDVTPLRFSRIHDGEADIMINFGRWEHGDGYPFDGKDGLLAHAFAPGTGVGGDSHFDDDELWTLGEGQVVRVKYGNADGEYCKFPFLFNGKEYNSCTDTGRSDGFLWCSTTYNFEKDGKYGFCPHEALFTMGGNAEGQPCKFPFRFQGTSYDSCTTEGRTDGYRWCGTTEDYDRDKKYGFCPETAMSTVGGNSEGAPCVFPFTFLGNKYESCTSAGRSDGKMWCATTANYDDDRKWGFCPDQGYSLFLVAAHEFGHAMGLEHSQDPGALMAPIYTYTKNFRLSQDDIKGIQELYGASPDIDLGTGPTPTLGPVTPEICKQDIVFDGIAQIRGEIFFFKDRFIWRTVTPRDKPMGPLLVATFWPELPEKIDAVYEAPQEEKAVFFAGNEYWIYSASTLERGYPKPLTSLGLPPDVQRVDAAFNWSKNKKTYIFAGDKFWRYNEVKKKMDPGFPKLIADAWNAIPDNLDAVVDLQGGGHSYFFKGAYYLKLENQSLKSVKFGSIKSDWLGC

[2] = target: MMP-9 (Homo sapiens, UniProt P14780); assay: as above; format: biochemical; settings: MMP9
Chain of MMP-9 (P14780 94-707): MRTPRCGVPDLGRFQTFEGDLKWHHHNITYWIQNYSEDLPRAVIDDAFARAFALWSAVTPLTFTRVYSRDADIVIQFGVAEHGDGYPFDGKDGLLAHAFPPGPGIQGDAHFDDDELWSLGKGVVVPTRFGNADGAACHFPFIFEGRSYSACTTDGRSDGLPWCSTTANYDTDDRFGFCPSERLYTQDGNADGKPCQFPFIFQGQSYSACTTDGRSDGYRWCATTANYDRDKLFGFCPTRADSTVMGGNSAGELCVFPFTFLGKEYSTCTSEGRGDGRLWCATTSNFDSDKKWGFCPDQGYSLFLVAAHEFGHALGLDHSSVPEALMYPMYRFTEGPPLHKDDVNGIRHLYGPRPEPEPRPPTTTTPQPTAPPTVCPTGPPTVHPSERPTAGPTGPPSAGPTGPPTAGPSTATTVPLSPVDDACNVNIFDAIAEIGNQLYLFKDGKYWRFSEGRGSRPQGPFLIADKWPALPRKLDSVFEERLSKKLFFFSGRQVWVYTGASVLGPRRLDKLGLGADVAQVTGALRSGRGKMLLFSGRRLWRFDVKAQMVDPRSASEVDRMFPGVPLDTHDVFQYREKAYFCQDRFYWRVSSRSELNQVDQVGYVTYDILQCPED

[3] = tested on: MMP-2; assay: Substrate phage display with NGS: relative probability (RP) of P3-P1' tetramer clusters; format: biochemical, human; settings: MMP2;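 note: ratio of tetramer probability after protease selection to that in naive phage library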
[4] = individual phage substrate of the set of 1369 peptides, cleavage position marked by '-'
[5] = individual phage substrate of the set of 1369 peptides, dash in the sequence marks the cleavage position
[6] = RP of the P3-P1' tetramer contained in the substrate
[7] = individual phage substrates, set of 1369 peptides, cleavage position marked by hyphen in sequence
[8] = individual phage substrates, set of 1369 peptides, hyphen in sequence marks cleavage position
[9] = RP of the P3-P1' tetramer contained in the substrate (substrate phage display with NGS)

Kobs [1, 4] [M⁻¹ s⁻¹] | Kobs [2, 5] [M⁻¹ s⁻¹] | Kobs [1, 7] [M⁻¹ s⁻¹] | Kobs [2, 8] [M⁻¹ s⁻¹] | Substance | relative probability (RP) [3, 6] | relative probability (RP) [3, 9]
5461.43 | 0 |  |  | TATNW-LTASG | 15.348 | 
7815.03 | 2837.92 |  |  | TILRN-ITASG | 19.0698 | 
 |  | 3964.21 | 9740.44 | TIPFY-MTASG |  | 8.184
7015.91 | 1513.13 |  |  | TKMAW-LTASG | 31.5866 | 
 |  | 418.952 | 1071.29 | TNPIM-LTASG |  | 15.4441
 |  | 9740.44 | 0 | TSLAN-LTASG |  | 34.4823
12792.1 | 12792.1 |  |  | TSPVA-LTASG | 34.2983 | 
12792.1 | 12792.1 |  |  | TVPYQ-LTASG | 25.4279 | 
1327.88 | 0 |  |  | TVTQN-LTASG | 7.238 | 
5889.62 | 3079.62 |  |  | VDIRM-LTASG | 12.7446 | 
12792.1 | 12792.1 |  |  | VFPMS-LTASG | 32.4868 | 
12792.1 | 6396.07 |  |  | VFTRN-LTASG | 12.3403 | 
12792.1 | 12792.1 |  |  | VIPRP-LTASG | 34.3303 | 
8941.32 | 0 |  |  | VIYGN-LTASG | 24.0019 | 
 |  | 8321.48 | 5889.62 | VLPRS-WTASG |  | 32.796
12792.1 | 8321.48 |  |  | VMLRF-LTASG | 10.7085 | 
 |  | 12792.1 | 619.843 | VMYGN-LTASG |  | 24.0019
 |  | 1196.62 | 2218.08 | VNARM-LTASG |  | 2.9901
 |  | 4763.33 | 0 | VRLNY-LTASG |  | 12.3459
 |  | 8321.48 | 8321.48 | VRVLH-LTASG |  | 19.5348
 |  | 12792.1 | 113.394 | VSLAY-LTASG |  | 25.3422

The remaining lines, values behind:

Substance | Kobs [1, 4] [M⁻¹ s⁻¹] | Kobs [2, 5] [M⁻¹ s⁻¹] | Kobs [1, 7] [M⁻¹ s⁻¹] | Kobs [2, 8] [M⁻¹ s⁻¹] | relative probability (RP) [3, 6] | relative probability (RP) [3, 9]
SYALH-LTASG | 12792.1 | 3964.21 |  |  | 14.6488 | 
TAPKL-LTASG | 7815.03 | 12792.1 |  |  | 15.3454 | 
TFARS-LTASG |  |  | 8941.32 | 5889.62 |  | 17.186
TFPFM-LTASG | 1981.53 | 12792.1 |  |  | 19.624 | 
TFWGA-LTASG | 10866.7 | 0 |  |  | 26.3441 | 
TGVSW-LTASG |  |  | 12792.1 | 10866.7 |  | 30.6564
TKWLA-LTASG |  |  | 3079.62 | 3637.04 |  | 1.218
TKYAY-ITASG |  |  | 0 | 0 |  | 1.709
TMGMN-MTASG |  |  | 142.481 | 517.582 |  | 0
TQVFG-LTASG |  |  | 2687.73 | 5461.43 |  | 12.5523
TRIAY-LTASG | 12792.1 | 3165.09 |  |  | 27.9862 | 
TRLAH-VTASG |  |  | 1660.66 | 0 |  | 11.7405
TSFRM-LTASG |  |  | 0 | 0 |  | 0.2112
TTHYS-LTASG |  |  | 0 | 142.481 |  | 0.1694
TTLRW-WTASG |  |  | 1816.46 | 690.17 |  | 6.313
TTPSW-LTASG |  |  | 9740.44 | 12792.1 |  | 35.705
TTPYH-ITASG | 4922.1 | 12792.1 |  |  | 15.3574 | 
TTYMS-LTASG | 0 | 0 |  |  | 0.07249 | 
TVLNS-LTASG |  |  | 3438.54 | 0 |  | 18.3633
TVPQM-ITASG | 5269.78 | 7815.03 |  |  | 16.6558 | 
TVPRA-WTASG |  |  | 8941.32 | 8941.32 |  | 34.1791
TVSYA-LTASG |  |  | 1154.21 | 2687.73 |  | 4.7967
TVVAY-ITASG | 12792.1 | 1112.44 |  |  | 18.7179 | 
VFVSN-LTASG |  |  | 12792.1 | 9740.44 |  | 33.8801
VHFAS-LTASG | 12792.1 | 1030.73 |  |  | 15.5827 | 

Substance | Kobs [1, 4] [M⁻¹ s⁻¹] | Kobs [2, 5] [M⁻¹ s⁻¹] | Kobs [1, 7] [M⁻¹ s⁻¹] | Kobs [2, 8] [M⁻¹ s⁻¹] | relative probability (RP) [3, 6] | relative probability (RP) [3, 9]
VKAYN-LTASG |  |  | 8941.32 | 9740.44 |  | 20.8713
VKPWA-LTASG | 5667.28 | 10866.7 |  |  | 31.9211 | 
VKVFS-MTASG |  |  | 912.511 | 4470.66 |  | 2.265
VLPEP-LTASG | 8941.32 | 6396.07 |  |  | 26.8179 | 
VLWAG-LTASG |  |  | 12792.1 | 3344.37 |  | 28.1709
VLWRA-LTASG | 12792.1 | 12792.1 |  |  | 22.4074 | 
VMVWN-ITASG |  |  | 2761.81 | 8321.48 |  | 4.0144
VPPEA-ITASG |  |  | 12792.1 | 12792.1 |  | 22.5231
VPPRV-LTASG | 799.117 | 2687.73 |  |  | 13.9079 | 
VPWGN-LTASG |  |  | 5461.43 | 0 |  | 14.7295
VQQQG-LTASG | 3741.87 | 231.616 |  |  | 6.401 | 
VRAHS-LTASG |  |  | 4205.91 | 4922.1 |  | 21.0212
VRPRP-FTASG | 12792.1 | 10866.7 |  |  | 32.5323 | 
VRWSW-LTASG | 2038.8 | 0 |  |  | 7.878 | 
VSSYW-LTASG |  |  | 951.362 | 1981.53 |  | 0.9791
VVLMG-LTASG | 1925.41 | 323.705 |  |  | 28.5499 | 
VVYRG-LTASG |  |  | 2761.81 | 2476.66 |  | 5.445
VYWGN-MTASG |  |  | 4082.43 | 27.918 |  | 3.723
WDALG-ITASG | 3850.82 | 2097.28 |  |  | 18.2164 | 
WHPVS-LTASG | 12792.1 | 12792.1 |  |  | 32.502 | 
WKVSS-LTASG |  |  | 10866.7 | 2218.08 |  | 29.0891
WLPRA-VTASG | 12792.1 | 12792.1 |  |  | 28.3444 | 
WMPLG-MTASG | 5461.43 | 12792.1 |  |  | 34.1118 | 
WPHGS-LTASG | 12792.1 | 0 |  |  | 19.9233 | 
